Data on one molecule can be found in patent publication US20140288056A1, “METHODS FOR NON-TOXIC TREATMENT FOR DRUG WITHDRAWAL” (DEMERX, INC., priority 2013, published 2014).

Series [1] in a line: Plasma toxicokinetics in dogs, 14 day repeat dose study. Conditions: Group 4 (5.0 mg/kg), male and female dogs, Days 1 and 14. The class given is in vivo, dog. The protocol: (§1) Noribogaine HCl was administered to groups of 4 male and 4 female dogs by single oral gavage daily for 14 days at doses of 0, 0.5, 1.0 and 5.0 mg/kg/day. An additional group of 4 male and 4 female dogs received either the vehicle control or 5.0 mg/kg/day for 14 days and were held for an additional 28 days after cessation of dosing to assess recovery from any potential drug-induced changes. The study was conducted under GLP guidelines and included comprehensive examinations of clinical signs, body weight, clinical pathology parameters, ophthalmologic examinations, ECG recordings and analyses of plasma for bioanalytical measurement of drug levels at appropriate intervals during the study. At the termination of the dosing phase and at the termination of the recovery phase, all dogs were subjected to a complete post-mortem examination including gross examination of major organs and histologic examination of an extensive list of tissues. Additional sections of brain were obtained from cerebrum, cerebellus, brain stem and spinal cord and examined histologically to evaluate potential effects on brain histopathology. In addition, these sections were examined with immunohistochemical stains for GFAP for evidence of gliosis and Calbindin for a more comprehensive examination of cerebellar Purkinje cells.

The nature of series [2]: Human pharmacokinetic study, single oral dose, fasting healthy volunteers. The class given is in vivo. Here is the method:
In double blind studies, fasting healthy volunteers (6 per cohort) were treated once orally with a tablet of noribogaine HCl. In escalating cohorts, the volunteers received 3 mg, 10 mg, 30 mg or 60 mg noribogaine.

Series [3] deals with dogs. The series is described as follows: Fourteen day repeat dose toxicity in dogs, oral gavage. Type of series: in vivo, dog. Here is the method:
The objective of this study was to determine the toxicity profile of noribogaine HCl given following oral (gavage) administration to dogs for 14 days according to the following Table 3 below:
as §1
The only target tissue identified in this study was the lacrimal gland of dogs receiving 5 mg/kg/day. […] There was an associated mononuclear infiltration in the draining mandibular lymph nodes of affected dogs in this dose group. […] There was no clear evidence of local irritation associated with drug treatment in these high dose dogs. […] While slight atrophy was still evident in the acinar cells of the gland after 28 days off drug, no evidence of continuing and ongoing degeneration or cellular infiltration was observed. The NOAEL in this study was 1 mg/kg/day based on the lacrimal gland changes at 5 mg/kg/day.

Series [4] relates to Sprague-Dawley rats. As to the kind of experiment: Fourteen day repeat dose toxicity in rats, oral gavage. The class given is in vivo, rat. The protocol: This study was conducted to evaluate the toxicity profile of noribogaine-HCl following oral (gavage) administration to the rat for 14 days following Table 2 below:
Male and female Sprague-Dawley rats, 10/sex/group, were administered 0, 25, 50 or 100 mg/kg noribogaine HCl daily by single oral gavage for 14 days. An additional 5 rats/sex/group in the 0 (control) and 100 mg/kg groups were retained for a 28 day recovery period during which no drug was administered. Six rats/sex/group (3 rats/sex controls) were similarly dosed and sampled on study days 1 and 14 for analysis of noribogaine-HCl concentrations in the blood.

In series [5] the test system is Sprague-Dawley rat. The series is described as follows: Single dose toxicity in rats, oral gavage. Type of series: in vivo. The protocol:
The objective of this study was to determine the toxicity and toxicokinetic profile of noribogaine HCl following a single oral (gavage) administration in the Sprague-Dawley rat. A single dose of 100, 300 and 800 mg/kg (achieved with doses of 400 mg/kg 3 h +/−30 min apart because of the limitations of maximum dose formulation concentration). Five male rats/group were used. […] Hypoactivity, vocalization, chewing movements, changes in respiration/posture, salivation, stimuli sensitivity, tremors, twitches and penile erection occurred prior to death. […] The NOAEL was determined to be 100 mg/kg.

The NOAEL is the highest tested level that showed no adverse finding. Take `CC[C@@H]1C[C@H]2CC3c4[nH]c5ccc(O)cc5c4CCN(C2)C31.Cl` [noribogaine HCl]: the “Plasma level at 24 h post-dosing” value in series [1] was “significant levels of noribogaine were still detected”. Further, in series [2] (3, 10, 30 or 60 mg single oral tablet), the Adverse effects entry is “no clinically relevant adverse effects were observed”. The “Dose linearity of parameters” value in series [2] (3 to 60 mg single oral dose) is reported as “linear”. For the same molecule, in series [3] (5 mg/kg/day for 14 days), the Lacrimal gland changes result was “slight to moderate atrophy and degeneration of the acinar cells”. For the same molecule, the “Lacrimal gland change in recovery group” value in series [3] (5 mg/kg/day, 28 days off drug) is “clear evidence of regeneration”. In addition, the “Adverse effect in clinical observations, body weights, clinical pathological parameters, ophthalmologic examinations, ECG recordings, or gross lesions at necropsy” value in series [3] (0.5, 1.0 and 5.0 mg/kg/day for 14 days, dosing or recovery phase) was “No evidence of adverse effect”. In series [3] (14 days oral), the “Drug-induced effect in any other tissue including brain (histopathology, immunohistochemistry)” value is given as “No evidence of drug-induced effect”. Moreover, the NOAEL in series [3] (14 days oral, based on lacrimal gland changes at 5 mg/kg/day) was found to be 1 mg/kg/day; in series [4] (14 days oral, highest dose tested) it was 100 mg/kg; in series [5] (single oral dose, male rats), 100 mg/kg. Moreover, the Body weight change is recorded as −2.6% in series [4] (100 mg/kg high dose, females) and −5.5% in series [4] (100 mg/kg high dose, males). Further, in series [4] (100 mg/kg high dose, males and females), the Food consumption change is on record as −4.7%. Further, the “Test article-related effects on mortality, clinical signs, ophthalmoscopy, hematology, coagulation parameters, clinical chemistry, urinalysis, gross necropsy or histopathology” value in series [4] (25, 50 or 100 mg/kg daily for 14 days) was “no test article-related effects”. Further, the “Differences in the brain in sections stained for GFAP or Calbindin” value in series [4] (14 days oral) was “No treatment-related differences”. The Liver weight entry in series [4] (mid- and high dose groups (50 and 100 mg/kg), considered incidental) was “Minor increases”. In series [5] (100 mg/kg), the Treatment related signs result is listed as “did not show any treatment related signs”. The “Rats with hypoactivity, vocalization, salivation, stimuli sensitivity, loss of limb function and lying on the cage floor” value in series [5] (300 mg/kg, day of treatment, persisted until Day 2) is recorded as 3/5. Besides, the Mortality entry in series [5] (800 mg/kg (two doses of 400 mg/kg 3 h apart), single oral gavage, male rats) is “Mortality occurred in all male rats”. For the same molecule, the “Time of mortality after administration of the second dose” value in series [5] (800 mg/kg group, after second dose of 400 mg/kg) lay within 2 to 3 h.
